Test results as given in patent publication US5482967A, “Condensed heterocyclic compounds, their production and use” (Takeda Chemical Industries, Ltd., priority 1992, dated 1996).

The compounds below were run against T1, acyl-CoA:cholesterol acyl transferase (ACAT) (Rattus norvegicus, UniProt Q7TQM4) (assay: Inhibitory action against acyl-CoA:cholesterol acyl transferase (ACAT), formation of labeled cholesterol ester, small intestine mucosal microsome fraction). Conditions: 10^-6 M; read-out: ACAT Inhibitory Rate (%).
T1 construct: small intestine mucosal microsome fraction of a 6-week-old male Sprague-Dawley rat; from tissue; host or cells: rat small intestine mucosa, microsome fraction
T1 sequence (Q7TQM4 1-524): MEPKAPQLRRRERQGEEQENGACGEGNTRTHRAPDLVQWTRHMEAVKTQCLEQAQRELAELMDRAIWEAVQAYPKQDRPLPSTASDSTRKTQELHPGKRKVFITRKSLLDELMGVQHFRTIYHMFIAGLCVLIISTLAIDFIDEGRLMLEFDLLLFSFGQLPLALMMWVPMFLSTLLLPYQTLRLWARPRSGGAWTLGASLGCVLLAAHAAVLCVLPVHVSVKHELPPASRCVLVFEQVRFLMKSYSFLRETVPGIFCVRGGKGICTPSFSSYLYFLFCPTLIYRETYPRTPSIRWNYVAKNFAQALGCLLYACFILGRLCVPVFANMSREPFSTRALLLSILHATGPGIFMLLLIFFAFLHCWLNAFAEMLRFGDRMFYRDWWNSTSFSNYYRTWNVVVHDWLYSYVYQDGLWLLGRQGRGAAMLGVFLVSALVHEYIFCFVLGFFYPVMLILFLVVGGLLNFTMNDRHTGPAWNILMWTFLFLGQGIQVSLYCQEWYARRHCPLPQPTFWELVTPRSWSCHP
Assay type: biochemical, male Sprague-Dawley rat
Experimental: An ACAT enzyme preparation was prepared from a small intestine mucosal microsome fraction of a 6-week-old male Sprague-Dawley rat, previously fasted for 20 hours, in accordance with the method described by Heider et al. in the Journal of Lipid Research, Vol. 24, page 1127 (1982).
ACAT activity was determined by measuring the amount of labeled cholesterol ester produced from [1-^14 C]-oleoyl-CoA and endogenous cholesterol, in accordance with the method of Helgerud et al. [Journal of Lipid Research, Vol. 22, page 271 (1981)].

Row | inhibition at 1 µM [%] | Compound
1 | 97.3 | COc1cc2c(cc1OC)N(C)C(=O)C(CC(=O)Nc1c(C(C)C)cccc1C(C)C)C2c1ccccc1 (stereo not drawn) [Example 18, N-[2,6-Bis(1-methylethyl)phenyl]-1,2,3,4-tetrahydro-6,7-dimethoxy-1-methyl-2-oxo-4-phenyl-3-quinolineacetamide]
2 | 99.3 | Cc1cc(C)c(NC(=O)Cc2c(-c3ccccc3C)c3cc(Cl)ccc3oc2=O)c(C)c1 [Example 87, 6-Chloro-4-(2-methylphenyl)-2-oxo-N-(2,4,6-trimethylphenyl)-2H-1-benzopyran-3-acetamide]
3 | 90.2 | Cc1cc2c(cc1C)N(C)C[C@@H](C(=O)Nc1c(C(C)C)cccc1C(C)C)[C@@H]2c1ccccc1Cl (relative stereo) [Example 15, 3,4-trans-N-[2,6-Bis(1-methylethyl)phenyl]-4-(2-chlorophenyl)-1,2,3,4-tetrahydro-1,6,7-trimethyl-3-quinolinecarboxamide]
4 | 99.4 | Cc1ccccc1-c1c(CC(=O)Nc2ccc(F)cc2F)c(=O)oc2ccc(Cl)cc12 [Example 83, 6-Chloro-N-(2,4-difluorophenyl)-4-(2-methylphenyl)-2-oxo-2H-1-benzopyran-3-acetamide]
5 | 96 | CC(C)c1cccc(C(C)C)c1NC(=O)C[C@H]1C(=O)N(C)c2ccc(Cl)cc2[C@H]1c1ccccc1 (relative stereo) [Example 32, 3,4-cis-N-[2,6-Bis(1-methylethyl)phenyl]-6-chloro-1,2,3,4-tetrahydro-1-methyl-2-oxo-4-phenyl-3-quinolineacetamide]
6 | 99.5 | CC(C)c1cccc(C(C)C)c1NC(=O)Cc1c(-c2ccccc2)c2cc(Cl)ccc2n(C)c1=O [Example 45, N-[2,6-Bis(1-methylethyl)phenyl]-6-chloro-1,2-dihydro-1-methyl-2-oxo-4-phenyl-3-quinolineacetamide]
7 | 97.8 | Cc1cc2c(cc1C)N(C)C(=O)[C@@H](CC(=O)Nc1c(C(C)C)cccc1C(C)C)[C@@H]2c1ccccc1Cl (relative stereo) [Example 20, 3,4-trans-N-[2,6-Bis(1-methylethyl)phenyl]-4-(2-chlorophenyl)-1,2,3,4-tetrahydro-1,6,7-trimethyl-2-oxo-3-quinolineacetamide]
8 | 99.5 | COc1cc(OC)c(NC(=O)Cc2c(-c3ccccc3C)c3cc(Cl)ccc3oc2=O)c(OC)c1 [Example 85, 6-Chloro-4-(2-methylphenyl)-2-oxo-N-(2,4,6-trimethoxyphenyl)-2H-1-benzopyran-3-acetamide]
9 | 92.8 | O=C(Cc1oc(=O)c2ccc(Cl)cc2c1-c1ccccc1)Nc1ccc(F)cc1F [Example 49, 6-Chloro-N-(2,4-difluorophenyl)-1-oxo-4-phenyl-1H-2-benzopyran-3-acetamide]
10 | 97.9 | Cc1ccc2oc(=O)c(CC(=O)Nc3ccc(F)cc3F)c(-c3ccccc3)c2c1 [Example 55, N-(2,4-Difluorophenyl)-6-methyl-2-oxo-4-phenyl-2H-1-benzopyran-3-acetamide]
11 | 99.3 | CCOc1cc(F)cc(OCC)c1NC(=O)Cc1c(-c2ccccc2C(F)(F)F)c2cc(Cl)ccc2oc1=O [Example 96, 6-Chloro-N-(2,6-diethoxy-4-fluorophenyl)-2-oxo-4-(2-trifluoromethylphenyl)-2H-1-benzopyran-3-acetamide]
12 | 99 | CCOc1cccc(OCC)c1NC(=O)Cc1c(-c2ccccc2OC)c2cc(Cl)ccc2oc1=O [Example 93, 6-Chloro-N-(2,6-diethoxyphenyl)-4-(2-methoxyphenyl)-2-oxo-2H-1-benzopyran-3-acetamide]
13 | 96.6 | CC(C)c1cccc(C(C)C)c1NC(=O)CC1C(=O)N(C)c2ccc(Cl)cc2N1c1ccccc1 (stereo not drawn) [Example 42, N-[2,6-Bis(1-methylethyl)phenyl]-6-chloro-1,2,3,4-tetrahydro-1-methyl-2-oxo-4-phenyl-3-quinoxalineacetamide]
14 | 99.1 | COc1cccc(OC)c1NC(=O)Cc1c(-c2ccccc2)c2cc(Cl)ccc2oc1=O [Example 79, 6-Chloro-N-(2,6-dimethoxyphenyl)-2-oxo-4-phenyl-2H-1-benzopyran-3-acetamide]
15 | 98.2 | COc1ccccc1-c1c(CC(=O)Nc2c(C(C)C)cccc2C(C)C)c(=O)oc2ccc(Cl)cc12 [Example 92, N-[2,6-Bis(1-methylethyl)phenyl]-6-chloro-4-(2-methoxyphenyl)-2-oxo-2H-1-benzopyran-3-acetamide]
16 | 99.1 | CCOc1cccc(OCC)c1NC(=O)Cc1c(-c2ccccc2C(F)(F)F)c2cc(Cl)ccc2oc1=O [Example 95, 6-Chloro-N-(2,6-diethoxyphenyl)-2-oxo-4-(2-trifluoromethylphenyl)-2H-1-benzopyran-3-acetamide]
17 | 99.7 | CCOc1cccc(OCC)c1NC(=O)Cc1c(-c2ccccc2C)c2cc(Cl)ccc2oc1=O [Example 88, 6-Chloro-N-(2,6-diethoxyphenyl)-4-(2-methylphenyl)-2-oxo-2H-1-benzopyran-3-acetamide]
18 | 90.3 | Cc1cc2c(-c3ccccc3)c(CC(=O)Nc3c(C(C)C)cccc3C(C)C)n(C)c(=O)c2cc1C [Example 47, N-[2,6-Bis(1-methylethyl)phenyl]-1,2-dihydro-2,6,7-trimethyl-1-oxo-4-phenyl-3-isoquinolineacetamide]
19 | 99.5 | Cc1ccc2c(c1)N(c1ccccc1)C(CC(=O)Nc1c(C(C)C)cccc1C(C)C)C(=O)N2C (stereo not drawn) [Example 64, N-[2,6-Bis(1-methylethyl)phenyl]-1,2,3,4-tetrahydro-1,6-dimethyl-2-oxo-4-phenyl-3-quinoxalineacetamide]
20 | 99.7 | Cc1ccc2oc(=O)c(CC(=O)Nc3c(C(C)C)cccc3C(C)C)c(-c3ccccc3)c2c1 [Example 53, N-[2,6-Bis(1-methylethyl)phenyl]-6-methyl-2-oxo-4-phenyl-2H-1-benzopyran-3-acetamide]
21 | 98.9 | CC(C)c1cccc(C(C)C)c1NC(=O)C[C@@H]1C(=O)N(C)c2ccc(Cl)cc2[C@H]1c1ccccc1 (relative stereo) [Example 33, 3,4-trans-N-[2,6-Bis(1-methylethyl)phenyl]-6-chloro-1,2,3,4-tetrahydro-1-methyl-2-oxo-4-phenyl-3-quinolineacetamide]
22 | 99.3 | CC(C)c1cccc(C(C)C)c1NC(=O)C[C@@H]1C(=O)N(C)c2ccc(Cl)cc2[C@H]1c1ccccc1Cl (relative stereo) [Example 21, 3,4-trans-N-[2,6-Bis(1-methylethyl)phenyl]-6-chloro-4-(2-chlorophenyl)-1,2,3,4-tetrahydro-1-methyl-2-oxo-3-quinolineacetamide]
23 | 93.8 | CC(C)c1ccc2c(c1)[C@@H](c1ccc(F)cc1)[C@H](C(=O)Nc1c(C(C)C)cccc1C(C)C)C(=O)O2 (relative stereo) [Example 13, 3,4-trans-N-[2,6-Bis(1-methylethyl)phenyl]-4-(4-fluorophenyl)-3,4-dihydro-6-(1-methylethyl)-2-oxo-2H-1-benzopyran-3-carboxamide]
24 | 99.3 | CC(C)c1cccc(C(C)C)c1NC(=O)Cc1cnc2ccc(Cl)cc2c1-c1ccccc1 [Example 57, N-[2,6-Bis(1-methylethyl)phenyl]-6-chloro-4-phenyl-3-quinolineacetamide]
25 | 98.1 | COc1cc(OC)c(NC(=O)Cc2c(-c3ccccc3)c3cc(Cl)ccc3oc2=O)c(OC)c1 [Example 51, 6-Chloro-2-oxo-4-phenyl-N-(2,4,6-trimethoxyphenyl)-2H-1-benzopyran-3-acetamide]
26 | 90.4 | O=C(Cc1c(-c2ccccc2)c2cc(Cl)ccc2oc1=O)Nc1ccc(F)cc1F [Example 52, 6-Chloro-N-(2,4-difluorophenyl)-2-oxo-4-phenyl-2H-1-benzopyran-3-acetamide]
27 | 92 | CN1C(=O)[C@@H](CC(=O)Nc2ccc(F)cc2F)[C@H](c2ccccc2)c2cc(Cl)ccc21 (relative stereo) [Example 27, 3,4-trans-6-Chloro-N-(2,4-difluorophenyl)-1,2,3,4-tetrahydro-1-methyl-2-oxo-4-phenyl-3-quinolineacetamide]
28 | 98.1 | COc1ccccc1-c1c(CC(=O)Nc2c(C(C)C)cccc2C(C)C)oc(=O)c2ccccc12 [Example 56, N-[2,6-Bis(1-methylethyl)phenyl]-4-(2-methoxyphenyl)-1-oxo-1H-2-benzopyran-3-acetamide]
29 | 98.4 | COc1cc(OC)c(NC(=O)Cc2c(-c3ccccc3)c3cc(C)ccc3oc2=O)c(OC)c1 [Example 54, 6-Methyl-2-oxo-4-phenyl-N-(2,4,6-trimethoxyphenyl)-2H-1-benzopyran-3-acetamide]
30 | 96.9 | COc1cc(OC)c(NC(=O)C[C@@H]2C(=O)N(C)c3ccc(Cl)cc3[C@H]2c2ccccc2)c(OC)c1 (relative stereo) [Example 25, 3,4-trans-6-Chloro-1,2,3,4-tetrahydro-1-methyl-2-oxo-4-phenyl-N-(2,4,6-trimethoxyphenyl)-3-quinolineacetamide]
